Results taken from the supplement of paper PMC10307832.

Key:
Test in all cases: relative viability (nuclei count vs DMSO), 5 days (fraction); higher = more cells survive
[1] = compound: Cn1nnc2c(C(N)=O)ncn2c1=O [Temozolomide] + Cc1nc(NC(=O)N2CCC[C@H]2C(N)=O)sc1-c1ccnc(C(C)(C)C(F)(F)F)c1 [Alpelisib] (partner 2 µM)
Method in brief: (§1)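 After 5 days of treatment, lung cancer cells in 1536-well plates were fixed and stained in a single step (final 0.05% Triton X-100, 1% formaldehyde, 1 ug/ml Hoechst) and their nuclei counted on 4× images. Treatment had been applied by pin tool the day after seeding as one drug alone or as a fixed anchor-drug dose with five library-drug doses (not always all listed) in √10 steps. Relative viability is the nuclei count of treated wells divided by that of vehicle wells, and values are medians of duplicate plates.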

[2] = compound: C[C@@H](C(=O)N[C@@H](C1CCCCC1)C(=O)N2CCC[C@H]2C(=O)N[C@@H]3[C@@H](CC4=CC=CC=C34)OCC#CC#CCO[C@@H]5CC6=CC=CC=C6[C@@H]5NC(=O)[C@@H]7CCCN7C(=O)[C@H](C8CCCCC8)NC(=O)[C@H](C)NC)NC [AZD5582] + Cc1nc(Nc2ncc(C(=O)Nc3c(C)cccc3Cl)s2)cc(N2CCN(CCO)CC2)n1 [Dasatinib] (partner 0.075 µM)
Method in brief: as §1

[3] = compound: Cn1nnc2c(C(N)=O)ncn2c1=O [Temozolomide] + COc1cccc2cc(-c3nc([C@H]4CC[C@H](C(=O)O)CC4)n4ncnc(N)c34)[nH]c12 [OSI-027] (partner 0.5 µM)
Method in brief: as §1

[4] = compound: Cn1nnc2c(C(N)=O)ncn2c1=O [Temozolomide] + O=C(CCCCCCC(=O)Nc1ccccc1)NO [Vorinostat] (partner 1 µM)
Method in brief: as §1

Cell Line	relative viability ([1]; first compound 0.2 µM)	relative viability ([1]; first compound 0.6325 µM)	relative viability ([1]; first compound 2 µM)	relative viability ([1]; first compound 6.325 µM)	relative viability ([1]; first compound 20 µM)	relative viability ([2]; first compound 0.001581 µM)	relative viability ([2]; first compound 0.005 µM)	relative viability ([2]; first compound 0.01581 µM)	relative viability ([2]; first compound 0.05 µM)	relative viability ([3]; first compound 0.2 µM)	relative viability ([3]; first compound 0.6325 µM)	relative viability ([3]; first compound 2 µM)	relative viability ([3]; first compound 6.325 µM)	relative viability ([3]; first compound 20 µM)	relative viability ([4]; first compound 0.2 µM)	relative viability ([4]; first compound 0.6325 µM)	relative viability ([4]; first compound 2 µM)	relative viability ([4]; first compound 6.325 µM)	relative viability ([4]; first compound 20 µM)
NCI-H1437	1.03	0.922	0.957	0.953	1.05	0.289	0.452	0.387	0.414	0.863	0.877	0.952	0.922	0.906	0.748	0.748	0.915	0.831	0.92
NCI-H2347	1.06	1.1	1.21	1.02	0.989	0.304	0.663	0.341	0.303	0.338	0.428	0.501	0.376	0.432	0.476	0.668	0.674	0.629	0.635
SK-LU-1	1.43	0.976	0.901	0.525	0.394	0.147	0.0852	0.174	0.0634	0.408	0.341	0.334	0.24	0.272	0.89	0.769	0.713	0.505	0.421
NCI-H2087	1.26	1.05	1.15	1.12	1.11	0.7	0.915	0.848	0.945	0.628	0.565	0.634	0.464	0.612	0.702	0.651	0.804	0.741	0.822
NCI-H727	0.655	0.511	0.533	0.675	0.504	0.317	0.319	0.505	0.274	0.638	0.779	0.712	0.493	0.534		1.15	1.31	1.16	1.06
NCI-H520	1.01	1.12	1.05	0.893	1.01	0.202	0.227	0.206	0.178	0.211	0.298	0.255	0.271	0.239	0.79	0.77	0.753	0.769	0.646
NCI-H1734	0.7	0.638	0.747	0.646	0.659	0.468	0.548	0.434	0.664	0.685	0.562	0.667	0.578	0.649	0.814	0.79	0.861	0.709	0.831
A-427	1.05	1.06	1.05	0.878	0.547	0.593	0.638	0.683	0.384	0.481	0.4	0.507	0.365	0.299	0.883	0.896	0.837	0.685	0.569
NCI-H2023	0.544	0.608	0.531	0.624	0.596	0.521	0.581	0.553	0.49	0.375	0.39	0.475	0.329	0.413	0.725	0.676	0.675	0.502	0.718
NCI-H1915	1.05	1.02	0.905	0.625	0.335	0.324	0.339	0.267	0.328	0.693	0.614	0.602	0.388	0.326	0.61	0.517	0.507	0.343	0.241
LK-2	0.544	1.07	1.1	0.466	0.391	0.209	0.36	0.322	0.266	0.2	0.218	0.214	0.168	0.196	0.345	0.296	0.386	0.188	0.237
NCI-H1755	0.972	0.952	0.853	0.881	0.59	0.398	0.456	0.356	0.363	0.76	0.758	0.743	0.673	0.637	0.863	0.763	0.604	0.627	0.638
NCI-H650	1.18	1.19	1.13	1.12	1.06	0.447	0.418	0.305	0.308	0.562	0.535	0.584	0.506	0.534	0.522	0.41	0.462	0.299	0.469
NCI-H441	0.881	0.804	0.901	0.743	0.566	0.591	0.726		0.508	0.597	0.85	0.846	0.523	0.651	0.986	0.885	0.773	0.703	0.691
NCI-H3122	0.75	0.776	0.795	0.73	0.663	0.729	0.707	0.802	0.185	0.404	0.995	1.33	0.949	1.03	1.11	0.988	1.17	0.998	0.96
NCI-H1793		0.714	0.881	0.716	0.585	0.32	0.429	0.292	0.261		0.279	0.27	0.245	0.232		0.847	0.758	0.692	0.503
COR-L 105	0.915	1.03	1.15	1.07	1.02	0.374	0.455	0.278	0.258	0.476	0.781	0.735	0.742	0.303	0.769	0.645	0.922	0.837	0.7
